Measured values as given in ChEMBL document CHEMBL1201862, “PubChem BioAssay data set” (2004).
Activity calls are given as the source filed them.

Tests used:
[1] = decrease of insulin promoter-GFP reporter – imaging, high-content screening, mouse beta cells (AID 1628); assay type: functional; details: MIN6
INS1 = assay: INS-1E survival protection against cytokine death – cell-based, luminescence, retest, dose response (AID 449756); assay type: functional; details: Rattus norvegicus;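 also: cell death triggered by IL-1 beta plus TNF-alpha plus IFN-gamma mixture; protective hits raise ATP signal compared with cytokine alone wells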
[2] = MIN6 cell viability loss – mouse insulinoma, cytotoxicity control, dose response (AID 2122); assay type: functional;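 also: confirmatory high-throughput counterscreen run to flag cytotoxic compounds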
Trypsin = Trypsin (Sus scrofa, UniProt P00761); assay: trypsin protease activity blockade – biochemical, quenched peptide fluorescence, cherry-pick, selectivity assay for Rce1 protease inhibitor project, dose response (AID 488789)
CAAX prenyl protease 2 [3] = biological target: T1, CAAX prenyl protease 2 (Saccharomyces cerevisiae S288c, UniProt Q03530); assay type: biochemical
T1 sequence (Q03530 whole entry): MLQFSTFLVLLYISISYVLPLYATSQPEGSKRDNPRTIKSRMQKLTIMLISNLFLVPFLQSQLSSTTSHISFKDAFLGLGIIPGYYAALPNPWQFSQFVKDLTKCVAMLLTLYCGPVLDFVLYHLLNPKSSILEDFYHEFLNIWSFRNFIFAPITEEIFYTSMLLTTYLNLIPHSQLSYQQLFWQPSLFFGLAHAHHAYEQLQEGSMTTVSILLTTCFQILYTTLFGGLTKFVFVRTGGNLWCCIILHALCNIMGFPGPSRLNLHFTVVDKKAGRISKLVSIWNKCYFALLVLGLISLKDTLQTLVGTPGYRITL

A-375 [4] = assay: MITF: Counter assay: A375 proliferation Measured in Cell-Based System Using Plate Reader - 2084-03_Inhibitor_Dose_DryPowder_Activity. [Related pubchem assays (depositor defined):AID488944]; assay type: functional; details: Homo sapiens
cells = assay type: functional, cell-based; details: HEK-CNG
[5] = biological target: T2, Microphthalmia-associated transcription factor (Homo sapiens, UniProt O75030); assay: reducers of TRPM1 reporter luminescence, concentration series – cell-based, SK-MEL-5, cherry-picked, set 3, MITF inhibitor project, dose response (AID 493073); assay type: functional;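 also: SK-MEL-5 melanoma cells with luciferase driven by the MITF target TRPM1 promoter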
T2 sequence (O75030 whole entry): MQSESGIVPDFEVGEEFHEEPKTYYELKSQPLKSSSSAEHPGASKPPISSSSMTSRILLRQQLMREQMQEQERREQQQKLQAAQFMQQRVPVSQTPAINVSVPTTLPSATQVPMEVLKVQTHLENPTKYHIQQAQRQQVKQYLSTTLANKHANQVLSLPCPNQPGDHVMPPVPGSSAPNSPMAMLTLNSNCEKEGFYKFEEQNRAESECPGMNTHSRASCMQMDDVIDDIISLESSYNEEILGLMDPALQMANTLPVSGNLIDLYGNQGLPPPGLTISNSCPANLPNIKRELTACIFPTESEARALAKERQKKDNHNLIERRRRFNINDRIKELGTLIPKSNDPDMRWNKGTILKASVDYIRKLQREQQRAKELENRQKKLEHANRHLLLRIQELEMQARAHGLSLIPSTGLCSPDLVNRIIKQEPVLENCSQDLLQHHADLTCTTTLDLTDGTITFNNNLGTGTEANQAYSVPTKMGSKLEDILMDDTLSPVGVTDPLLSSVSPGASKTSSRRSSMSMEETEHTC

[6] = fluconazole-exposed Candida albicans growth modulators – fluorescence, retest, confirmation (AID 2467); assay type: functional, cell-based
A-375 [7] = assay: proliferation inhibition in MITF-low A375 cells – cell-based, cherry-pick samples, set 2, counter-screen for MITF modulator project, dose response (AID 540335); assay type: functional; details: Homo sapiens
[8] = NIH-3T3 fibroblast cytotoxicity, dose response, cytotoxicity control, cell-based, fluorescence, Alamar Blue, secondary assay (AID 2327); assay type: functional;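 also: NIH-3T3 mouse fibroblasts cultured with fluconazole at 8 µg/mL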
Galanin receptor type 3 = biological target: T3, Galanin receptor type 3 (Homo sapiens, UniProt O60755); assay: Fluorescence-based cell-based primary high throughput dose response assay to identify antagonists of the Galanin Receptor 3 (GalR3).; assay type: functional
T3 sequence (O60755 whole entry): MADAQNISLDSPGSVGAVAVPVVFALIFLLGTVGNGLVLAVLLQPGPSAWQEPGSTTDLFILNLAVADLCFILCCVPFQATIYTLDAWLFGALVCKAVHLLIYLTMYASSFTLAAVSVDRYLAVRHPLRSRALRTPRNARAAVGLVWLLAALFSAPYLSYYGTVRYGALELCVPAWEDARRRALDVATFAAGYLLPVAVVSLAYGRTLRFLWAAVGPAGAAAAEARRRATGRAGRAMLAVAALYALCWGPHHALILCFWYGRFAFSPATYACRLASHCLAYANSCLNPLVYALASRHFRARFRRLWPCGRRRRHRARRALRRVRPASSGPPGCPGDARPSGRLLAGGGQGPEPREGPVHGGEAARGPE

Escherichia coli = assay: microbe, parasite or virus in culture
Aminopeptidase N = biological target: T4, Aminopeptidase N (Plasmodium falciparum FcB1/Columbia, UniProt O96935); assay: malaria alanyl aminopeptidase activity blockers – biochemical, fluorogenic H-Leu-NHMec substrate, 1536-well (AID 1445); design: species or system Plasmodium falciparum 3D7, 3D7
T4 sequence (O96935 whole entry): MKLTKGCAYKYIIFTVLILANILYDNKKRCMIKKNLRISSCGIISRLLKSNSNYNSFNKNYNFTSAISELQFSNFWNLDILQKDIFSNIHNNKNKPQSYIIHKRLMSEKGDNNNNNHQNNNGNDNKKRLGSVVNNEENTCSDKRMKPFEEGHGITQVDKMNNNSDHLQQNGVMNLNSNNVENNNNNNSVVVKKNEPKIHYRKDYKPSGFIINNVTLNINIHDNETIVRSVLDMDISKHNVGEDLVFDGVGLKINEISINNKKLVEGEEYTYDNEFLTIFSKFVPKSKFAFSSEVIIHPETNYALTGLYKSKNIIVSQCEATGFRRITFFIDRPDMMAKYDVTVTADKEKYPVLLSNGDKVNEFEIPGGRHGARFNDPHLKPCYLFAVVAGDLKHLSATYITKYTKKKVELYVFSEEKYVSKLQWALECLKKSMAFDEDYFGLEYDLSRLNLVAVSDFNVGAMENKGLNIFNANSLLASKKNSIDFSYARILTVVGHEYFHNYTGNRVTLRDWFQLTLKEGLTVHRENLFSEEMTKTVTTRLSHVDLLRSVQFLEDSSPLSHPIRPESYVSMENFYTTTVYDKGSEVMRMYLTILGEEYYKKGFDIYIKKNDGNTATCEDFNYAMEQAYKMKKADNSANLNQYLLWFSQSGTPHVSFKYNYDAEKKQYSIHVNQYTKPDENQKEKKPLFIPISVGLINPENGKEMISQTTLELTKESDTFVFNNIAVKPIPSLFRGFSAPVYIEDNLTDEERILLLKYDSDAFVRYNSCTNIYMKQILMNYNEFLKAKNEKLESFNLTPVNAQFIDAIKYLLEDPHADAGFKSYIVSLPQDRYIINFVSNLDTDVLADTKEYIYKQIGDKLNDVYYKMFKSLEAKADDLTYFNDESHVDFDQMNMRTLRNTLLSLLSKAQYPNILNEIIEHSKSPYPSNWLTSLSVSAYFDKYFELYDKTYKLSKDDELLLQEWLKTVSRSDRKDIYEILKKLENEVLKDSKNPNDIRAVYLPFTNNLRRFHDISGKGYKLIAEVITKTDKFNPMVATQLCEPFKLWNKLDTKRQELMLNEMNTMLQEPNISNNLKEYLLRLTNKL

[9] = biological target: Delta-type opioid receptor (Homo sapiens, UniProt P41143); assay: Counterscreen for agonists of heterodimerization of the mu 1 (OPRM1) and delta 1 (OPRD1) opioid receptors: Luminescence-based cell-based high throughput dose response assay to identify agonists of OPRD1 homodimerization. [Related pubchem assays (depositor defined):AID504326, AID504355, AID504692, AID504904, AID504905]; assay type: functional
Mu-type opioid receptor = Mu-type opioid receptor (Homo sapiens, UniProt P35372); assay: Counterscreen for agonists of heterodimerization of the mu 1 (OPRM1) and delta 1 (OPRD1) opioid receptors: Luminescence-based cell-based high throughput dose response assay to identify agonists of OPRM1 homodimerization.; assay type: functional;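 also: U2OS cells expressing OPRM1 and beta-arrestin as split beta-galactosidase partners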
[10] = biological target: 5-hydroxytryptamine receptor 5A (Homo sapiens, UniProt P47898); assay: Counterscreen for agonists of OPRM1-OPRD1 heterodimerization: luminescence-based cell-based high throughput dose response assay to identify agonists of 5-hydroxytryptamine (serotonin) 5A receptor (HTR5A). [Related pubchem assays (depositor defined):AID504326, AID504355, AID504692, AID504904, AID504905]; assay type: functional
[11] = biological target: T5, Short transient receptor potential channel 4 (Mus musculus, UniProt Q9QUQ5); assay: calcium entry via TRPC4 opening agents – cell-based, HEK293 TRPC4/mu-opioid, Fluo-4 calcium, dose response (AID 434937); assay type: functional
T5 sequence (Q9QUQ5 whole entry): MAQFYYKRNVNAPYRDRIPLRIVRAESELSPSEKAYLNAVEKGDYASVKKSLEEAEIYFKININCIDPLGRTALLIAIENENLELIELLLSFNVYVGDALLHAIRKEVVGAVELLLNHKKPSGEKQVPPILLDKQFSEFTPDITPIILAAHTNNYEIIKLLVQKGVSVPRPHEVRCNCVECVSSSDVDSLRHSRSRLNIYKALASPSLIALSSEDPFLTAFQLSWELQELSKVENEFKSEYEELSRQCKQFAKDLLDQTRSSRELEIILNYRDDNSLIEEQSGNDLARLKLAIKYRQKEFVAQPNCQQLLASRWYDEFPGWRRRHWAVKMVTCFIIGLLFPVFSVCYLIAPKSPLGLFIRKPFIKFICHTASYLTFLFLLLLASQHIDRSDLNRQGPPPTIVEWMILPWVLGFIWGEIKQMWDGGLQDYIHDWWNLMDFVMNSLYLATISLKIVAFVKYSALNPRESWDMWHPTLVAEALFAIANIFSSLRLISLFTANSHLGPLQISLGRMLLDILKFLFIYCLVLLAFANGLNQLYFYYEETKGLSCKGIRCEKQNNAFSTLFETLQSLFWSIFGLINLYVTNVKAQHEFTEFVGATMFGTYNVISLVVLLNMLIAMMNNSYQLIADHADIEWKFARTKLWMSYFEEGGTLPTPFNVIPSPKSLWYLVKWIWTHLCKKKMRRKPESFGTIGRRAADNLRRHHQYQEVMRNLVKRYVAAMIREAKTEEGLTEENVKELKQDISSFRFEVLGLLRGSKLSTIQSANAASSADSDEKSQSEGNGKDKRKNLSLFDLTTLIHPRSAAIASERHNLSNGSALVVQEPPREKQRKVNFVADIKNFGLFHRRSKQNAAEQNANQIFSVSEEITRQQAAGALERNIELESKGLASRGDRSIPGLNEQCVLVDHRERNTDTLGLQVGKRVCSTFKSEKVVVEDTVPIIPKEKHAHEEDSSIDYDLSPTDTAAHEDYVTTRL

CAAX prenyl protease 2 [12] = biological target: T6, CAAX prenyl protease 2 (Homo sapiens, UniProt Q9Y256); assay: inhibition of Ras-converting CAAX protease Rce1 – biochemical, yeast membranes, quenched-peptide fluorescence, cherry-pick, dose response (AID 588849)
T6 sequence (Q9Y256 whole entry): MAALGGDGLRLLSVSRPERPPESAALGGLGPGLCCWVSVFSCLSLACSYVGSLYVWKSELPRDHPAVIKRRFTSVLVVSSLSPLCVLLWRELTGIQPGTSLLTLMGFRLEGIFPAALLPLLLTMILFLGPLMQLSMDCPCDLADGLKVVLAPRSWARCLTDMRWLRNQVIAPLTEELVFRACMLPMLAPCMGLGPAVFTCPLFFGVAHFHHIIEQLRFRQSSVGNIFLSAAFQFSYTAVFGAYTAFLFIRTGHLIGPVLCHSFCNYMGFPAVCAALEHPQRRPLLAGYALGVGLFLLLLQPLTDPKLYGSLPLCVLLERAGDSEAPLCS

Sequence of Mu-type opioid receptor (P35372 whole entry): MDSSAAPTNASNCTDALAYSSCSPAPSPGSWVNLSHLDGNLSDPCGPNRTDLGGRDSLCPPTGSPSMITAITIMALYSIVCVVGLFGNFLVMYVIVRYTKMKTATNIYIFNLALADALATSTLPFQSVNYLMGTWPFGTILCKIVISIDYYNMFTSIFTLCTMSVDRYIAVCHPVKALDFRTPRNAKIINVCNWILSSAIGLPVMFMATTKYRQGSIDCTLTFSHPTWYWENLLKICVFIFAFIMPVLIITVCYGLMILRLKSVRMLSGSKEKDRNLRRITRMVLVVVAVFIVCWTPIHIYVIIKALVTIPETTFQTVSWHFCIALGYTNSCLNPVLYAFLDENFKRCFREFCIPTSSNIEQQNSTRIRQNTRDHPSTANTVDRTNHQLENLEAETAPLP
Sequence of Delta-type opioid receptor (P41143 whole entry): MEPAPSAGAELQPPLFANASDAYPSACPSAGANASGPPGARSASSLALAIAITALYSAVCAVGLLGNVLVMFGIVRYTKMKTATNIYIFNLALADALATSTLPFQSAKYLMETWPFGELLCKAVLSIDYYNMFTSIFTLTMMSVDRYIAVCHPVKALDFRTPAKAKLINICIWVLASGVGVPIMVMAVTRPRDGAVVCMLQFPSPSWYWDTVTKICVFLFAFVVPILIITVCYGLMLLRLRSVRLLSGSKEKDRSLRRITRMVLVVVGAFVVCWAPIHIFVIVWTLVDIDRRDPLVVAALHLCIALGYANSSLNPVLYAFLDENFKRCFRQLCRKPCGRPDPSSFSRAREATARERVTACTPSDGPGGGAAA
Sequence of 5-hydroxytryptamine receptor 5A (P47898 whole entry): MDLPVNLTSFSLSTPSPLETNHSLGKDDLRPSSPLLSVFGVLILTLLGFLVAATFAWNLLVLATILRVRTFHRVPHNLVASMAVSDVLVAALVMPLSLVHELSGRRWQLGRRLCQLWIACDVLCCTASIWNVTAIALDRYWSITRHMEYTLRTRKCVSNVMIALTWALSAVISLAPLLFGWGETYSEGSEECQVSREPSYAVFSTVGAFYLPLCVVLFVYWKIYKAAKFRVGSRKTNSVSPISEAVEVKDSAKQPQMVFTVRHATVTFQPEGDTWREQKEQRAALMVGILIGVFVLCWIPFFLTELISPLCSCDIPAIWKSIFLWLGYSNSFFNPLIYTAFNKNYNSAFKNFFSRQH
Sequence of Trypsin (P00761 whole entry): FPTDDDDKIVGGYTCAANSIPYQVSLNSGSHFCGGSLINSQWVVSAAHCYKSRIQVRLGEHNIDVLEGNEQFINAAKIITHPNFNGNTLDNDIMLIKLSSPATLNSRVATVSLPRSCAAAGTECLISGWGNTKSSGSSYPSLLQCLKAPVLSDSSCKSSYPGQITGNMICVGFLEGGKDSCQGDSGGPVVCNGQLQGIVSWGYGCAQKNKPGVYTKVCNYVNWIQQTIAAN

## Cn1cc(CNCc2ccc(OC(F)(F)F)cc2)c(-c2ccc3c(c2)OCCO3)n1
[1]
  IC50: 0.272 µM (active)
INS1
  AC50: 1.04 µM (active)
[2]
  IC50: < 0.25 µM (active)

## CC1(c2ccncc2)Nc2ccccc2-c2nc3ccccc3n21 (stereo unspecified)
Trypsin
  AC50: 9.63 µM (active)
CAAX prenyl protease 2 [3]
  AC50: 68 µM (active)

## COc1ccc(-c2nc3n(c2C)Cc2ccccc2-3)cc1
A-375 [4]
  AC50: 30.1 µM (active)

## CC(C)(C)c1ccc(-c2c[n+](-c3ccc(Br)cc3)c3n2CCCS3)cc1
cells
  EC50: > 29.9 µM (inactive)
[5]
  AC50: 3.2 µM (active)
[6]
  EC50: 0.199 µM (active)
A-375 [7]
  AC50: 34.1 µM (active)
[8]
  EC50: > 160 µM (inactive)
Galanin receptor type 3
  IC50: 10.1 µM (inactive)

## CC(C)(C)c1ccc(C(=O)O)c(C(=O)c2ccc(C(=O)O)cc2)c1
Escherichia coli
  AC50: 49.3 µM (active)

## CCOC(=O)c1c(NC(=O)CSc2ccccc2C(=O)O)sc(C)c1C
Aminopeptidase N
  IC50: 52.3 µM (active)

## CCOC(=O)C1(Cc2ccccc2)CCN(Cc2cccn2-c2nccs2)CC1
[9]
  EC50: > 92.5 µM (inactive)
Mu-type opioid receptor
  EC50: > 92.5 µM (inactive)
[10]
  EC50: > 92.5 µM (inactive)

## CC(=O)NC(CC(=O)NCC(c1ccco1)N(C)C)c1ccccc1 (stereo unspecified)
[9]
  EC50: 31 µM (inactive)
Mu-type opioid receptor
  EC50: > 92.5 µM (inactive)
[11]
  EC50: 0.0533 µM (active)
[10]
  EC50: > 92.5 µM (inactive)

## Cc1nn(Cc2ccccc2)c(C)c1C(=O)NCc1ccccc1
Escherichia coli
  AC50: 42.7 µM (active)

## COc1ccc(/C=N/NC(=O)c2[nH]c3ccc(Br)cc3c2-c2ccccc2)c(C(=O)O)c1OC
Aminopeptidase N
  IC50: 65.3 µM (active)

## CN(c1ccccc1)c1ccc(/C=N/NC(=O)CC#N)cc1
Trypsin
  AC50: 5.99 µM (active)
CAAX prenyl protease 2 [12]
  AC50: 2.64 µM (active)
CAAX prenyl protease 2 [3]
  AC50: 6.98 µM (active)

## O=C(Nc1ccccc1)c1ccc(NC2CCCCC2)c(S(=O)(=O)N2CCOCC2)c1
[9]
  EC50: > 92.5 µM (inactive)
Mu-type opioid receptor
  EC50: > 92.5 µM (inactive)
[10]
  EC50: > 92.5 µM (inactive)

## CN(C)c1ccc(/C=N/NC(=O)CNC(=O)c2ccco2)cc1
CAAX prenyl protease 2 [12]
  AC50: 5.17 µM (active)
CAAX prenyl protease 2 [3]
  AC50: 7.99 µM (active)
